Article PMC4800182 (Frontiers in Microbiology, 2016)
Counter-ions that a name gives are not always drawn.

Experiments:
[1] = test system: A(H1N1)pdm09 influenza virus A/Jena/8178/09; assay: Inhibition of Jena/8178 replication (yield, spread) by NAI in A549 cells in presence of rNanB; format: cell-based; details: 48 h after infection, rNanB 1:10,000, untreated control = 100%
Procedure: (§1) Confluent MDCK and A549 cells were mock-infected with test medium or infected with Jena/8178 (0.1 TCID50/cell) for 1 h (37°C; 5% CO2). After three washing steps with test medium, test medium or various rNanA or rNanB dilutions (1:100 to 1:1,000,000) were added. After 48 h at 37°C the supernatant was taken and stored at –20°C until plaque titer determination (virus yield analysis). The remaining cells were fixed with ice-cold methanol for 20 min and stored after washing with PBS in PBS at 4°C until immunocytochemical staining (virus spread analysis).
(§2) To determine the virus yield in collected supernatants, plaque assays were conducted on confluent MDCK cells grown in 12-well tissue culture plates (Greiner Bio-One GmbH). Briefly, after virus adsorption (37°C; 1 h), inoculum was replaced by 1 mL test medium containing also 0.4% agarose and 50 mM magnesium chloride (VEB Laborchemikalien, Apolda, Germany). After 48 h of incubation at 37°C, cells were fixed and stained with a solution of 0.4% crystal violet in a mixture of formalin (3% v/v) and ethanol (1.67% v/v) in water overnight. Plaques were counted over a light box after removal of the agar overlay.
(§3) Virus spread was analyzed by detecting viral nucleoprotein with a monoclonal antibody (Acris GmbH, Hiddenhausen, Germany) by immunocytochemical staining according to the manufacturers protocol (DAKO, Hamburg, Germany; [Bauer et al., 2007]).
(§4) The inhibitory effect of the NAI on Jena/8178 (inhibition of virus yield and spread) was determined in absence and presence of rNanA or rNanB in A549 cells.
(§5) ^a The plaque titer of untreated control (influenzavirus A/Jena/8178/09) reached in A549 cells (48 h after infection) in the absence and presence of rNanA or rNanB was set as 100% virus yield. It was used to calculate the percentage of virus yield after NAI treatment. Mean and standard deviations were calculated of at least three assays with two replicates.

[2] = test system: A(H1N1)pdm09 influenza virus A/Jena/8178/09; assay: Inhibition of Jena/8178 replication (yield, spread) by NAI in A549 cells, without pneumococcal NA; format: cell-based; details: 48 h after infection, untreated control = 100%
Procedure: as §1, §2, §3, §4, §5

rNanA [3] = biological target: T1, rNanA (Streptococcus pneumoniae, UniProt P62575); assay: HA assay (hemagglutination of NA-treated human erythrocytes with peanut lectin), inhibition of rNanA; format: biochemical, Streptococcus pneumoniae DSM20566; details: 1 h incubation
T1 construct: made in house; host or cells: E. coli
Procedure: Neuraminidase activity of both NAs was further confirmed based on hemagglutination of NA-treated human erythrocytes in the presence of peanut lectin (HA assay) as described recently ([Richter et al., 2015]; [Walther et al., 2015]).
(§6) The NAI susceptibility of rNanA and rNanB was evaluated with FL assay (rNanA and rNanB diluted 1:10,000 in FL buffer; pH 6.5) and HA assay as published recently ([Richter et al., 2015]) with slight modification of the HA assay. For stability reasons, rNanA and rNanB were diluted 1:5,000 in phosphate buffered saline (PBS) containing 100 μg/mL bovine serum albumin and stored at –20°C until use. The incubation period of the recombinant proteins with the human erythrocytes was only 1 h. At least three individual experiments were performed.

rNanB [4] = biological target: T2, rNanB (Streptococcus pneumoniae serotype 4, UniProt Q54727); assay: HA assay (hemagglutination of NA-treated human erythrocytes with peanut lectin), inhibition of rNanB; format: biochemical, Streptococcus pneumoniae DSM20566; details: 1 h incubation
T2 construct: encodes a C-terminal 6xHis-tagged NanB in size of 699 amino acid residues; 6xHis (C); made in house; host or cells: E. coli (vector pET-28a, plasmid pTNB20566)
Procedure: as §6

[5] = test system: A(H1N1)pdm09 influenza virus A/Jena/8178/09; assay: Inhibition of Jena/8178 replication (yield, spread) by NAI in A549 cells in presence of rNanA; format: cell-based; details: for spread and yield of the virus in the presence of NanA: oseltamivir at 1 μM; for Percentage of Virus Yield after NAI Treatment, with rNanA: 48 h after infection, rNanA 1:10,000, untreated control = 100%
Procedure: as §1, §2, §3, §4, §5

rNanA [6] = biological target: T1, rNanA; assay: FL assay (MUNANA), inhibition of rNanA; format: biochemical, Streptococcus pneumoniae DSM20566
Procedure: (§7) Activity of 10-fold dilutions (1:1,000 to 1:100,000) of rNanA and rNanB was determined with a fluorescence-based NA assay (FL assay) using the substrate 2-(4-methylumbelliferyl)-α-D-N-acetylneuraminic acid sodium salt hydrate (MUNANA, Sigma–Aldrich GmbH) as published ([Richter et al., 2015]). The activity of rNanB was additionally tested at pH 5. Relative FL units (RFU) were read using the microplate reader FLUOstar Omega (BMG Labtech GmbH, Ortenberg, Germany) and converted to 4-MU concentration (Sigma–Aldrich GmbH) according to the 4-MU standard curve (Supplementary Figure 1). Velocity (μM/min) and Km value (μM) for rNanA and rNanB were determined using eight MUNANA concentrations (3.13 to 400 μM) at pH 6.5. After 5 min the reaction was stopped, RFU were measured and converted to 4-MU concentrations according to the 4-MU standard curve. The Enzyme Kinetics Module of SigmaPlot 12.0 (Systat Software, San Jose, CA, USA) was applied to fit the data to the Michaelis–Menten equation using non-linear regression.
as §6

rNanB [7] = biological target: T2, rNanB; assay: FL assay (MUNANA), inhibition of rNanB; format: biochemical, Streptococcus pneumoniae DSM20566; details: for Inhibitory Concentration of NAIs against rNanB, FL assay: rNanB diluted 1:10,000, pH 6.5, MUNANA substrate
Procedure: as §7, §6

[8] = biological target: Influenza Virus A/Jena/8178/09 Neuraminidase (Influenza A virus (A/Jena/8178/2009(H1N1)), UniProt A0A088CA11); assay: FL assay, inhibition of viral neuraminidase; format: biochemical; details: A/Jena/8178/09 NA; maximum tested concentration 100 μM; read-out: Inhibitory Concentration of NAIs, FL Assay (mean IC50)
rNanB [9] = test system: T3, rNanB; assay: Fluorescence-based NA assay with eight MUNANA concentrations (3.13 to 400 uM) at pH 6.5, enzymes diluted 1:10,000, stopped after 5 min, 4-MU release fitted to the Michaelis-Menten equation by non-linear regression.; format: biochemical; details: n = 3
T3 construct: recombinant, expressed in E. coli from pET-28a (pTNB20566); C-terminal 6xHis tag; 699 amino acid residues
Procedure: as §7
(§8) Both rNanA and rNanB were expressed in E. coli and their activity was confirmed by the FL assay at pH 5 (for rNanB only) and pH 6.5 (for both rNanA and rNanB). […] Activities of both recombinant S. pneumoniae NAs were further confirmed under more physiological conditions in a hemagglutination assay (HA assay; [Richter et al., 2015]). […]

[10] = test system: CC(=O)N[C@H]1[C@H]([C@H](O)[C@H](O)CO)O[C@@](Oc2ccc3c(C)cc(=O)oc3c2)(C(=O)O)C[C@@H]1O; assay: as above; format: biochemical
Procedure: as §7, §8

T1 sequence (P62575 54-1035): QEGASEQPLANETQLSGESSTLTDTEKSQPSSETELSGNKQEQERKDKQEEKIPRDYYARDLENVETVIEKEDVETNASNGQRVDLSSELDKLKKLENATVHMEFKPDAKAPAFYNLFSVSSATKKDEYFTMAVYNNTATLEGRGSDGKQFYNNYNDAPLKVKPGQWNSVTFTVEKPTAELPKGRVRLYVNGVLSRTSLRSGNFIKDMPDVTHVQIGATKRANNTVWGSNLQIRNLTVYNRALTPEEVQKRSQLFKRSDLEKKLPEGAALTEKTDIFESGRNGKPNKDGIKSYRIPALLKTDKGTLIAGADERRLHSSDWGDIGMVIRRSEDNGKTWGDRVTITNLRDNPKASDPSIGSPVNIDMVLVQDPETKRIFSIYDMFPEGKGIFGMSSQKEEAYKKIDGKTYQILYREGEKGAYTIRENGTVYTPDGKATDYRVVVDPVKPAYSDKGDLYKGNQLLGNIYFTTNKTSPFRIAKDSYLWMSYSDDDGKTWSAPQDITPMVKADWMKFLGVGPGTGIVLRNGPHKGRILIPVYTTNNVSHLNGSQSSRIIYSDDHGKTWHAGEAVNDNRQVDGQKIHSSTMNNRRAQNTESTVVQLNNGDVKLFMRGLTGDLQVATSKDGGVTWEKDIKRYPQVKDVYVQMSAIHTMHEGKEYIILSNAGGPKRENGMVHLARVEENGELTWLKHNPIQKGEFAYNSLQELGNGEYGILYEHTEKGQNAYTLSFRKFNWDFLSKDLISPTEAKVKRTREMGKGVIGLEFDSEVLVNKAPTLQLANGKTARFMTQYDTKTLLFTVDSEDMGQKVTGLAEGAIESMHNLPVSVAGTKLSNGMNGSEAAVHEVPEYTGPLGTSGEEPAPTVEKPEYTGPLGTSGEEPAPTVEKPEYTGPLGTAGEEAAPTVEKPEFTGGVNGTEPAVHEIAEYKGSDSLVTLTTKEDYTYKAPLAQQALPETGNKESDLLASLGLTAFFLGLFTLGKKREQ
T2 sequence (Q54727 30-697): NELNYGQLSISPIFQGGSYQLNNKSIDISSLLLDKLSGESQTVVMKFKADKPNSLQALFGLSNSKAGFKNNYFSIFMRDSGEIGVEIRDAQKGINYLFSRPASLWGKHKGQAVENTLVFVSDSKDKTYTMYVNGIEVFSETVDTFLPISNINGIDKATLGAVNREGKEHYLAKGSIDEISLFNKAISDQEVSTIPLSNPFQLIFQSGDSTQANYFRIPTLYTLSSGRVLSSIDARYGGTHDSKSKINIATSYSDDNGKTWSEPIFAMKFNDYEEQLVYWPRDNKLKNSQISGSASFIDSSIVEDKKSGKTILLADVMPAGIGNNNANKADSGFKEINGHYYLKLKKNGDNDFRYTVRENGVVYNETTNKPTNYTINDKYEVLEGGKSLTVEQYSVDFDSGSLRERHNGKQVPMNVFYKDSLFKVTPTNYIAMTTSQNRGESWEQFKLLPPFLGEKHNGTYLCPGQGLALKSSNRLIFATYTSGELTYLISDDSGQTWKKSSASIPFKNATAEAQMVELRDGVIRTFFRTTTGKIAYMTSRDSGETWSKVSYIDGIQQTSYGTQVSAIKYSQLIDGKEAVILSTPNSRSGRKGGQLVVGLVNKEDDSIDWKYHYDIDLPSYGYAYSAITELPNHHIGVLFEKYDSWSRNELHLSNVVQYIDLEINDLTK

Molecule	Percentage of Virus Yield after NAI Treatment, with rNanB ([1]; NAI 20 µM) [%]	Percentage of Virus Yield after NAI Treatment, without NA ([2]; NAI 10 µM) [%]	Percentage of Virus Yield after NAI Treatment, without NA ([2]; NAI 20 µM) [%]	Inhibitory Concentration of NAIs against rNanA, HA assay (rNanA [3])	Inhibitory Concentration of NAIs against rNanB, HA assay (rNanB [4])	spread and yield of the virus in the presence of NanA ([5]; 48 h)	Percentage of Virus Yield after NAI Treatment, with rNanA ([5]; NAI 10 µM) [%]	Percentage of Virus Yield after NAI Treatment, with rNanA ([5]; NAI 20 µM) [%]	IC50 (rNanA [6]) [µM]	Inhibitory Concentration of NAIs against rNanB, FL assay (rNanB [7])	further results
COc1cc2oc(-c3ccc(O)cc3O)c(CC=C(C)C)c(=O)c2c(O)c1/C=C/C(C)C [Artocarpin]	77.1 ± 37.8	70.2 ± 10.5	84.8 ± 15.7	10.0 ± 0.0 µM	10.0 ± 0.0 µM	inhibited	67.3 ± 25.5	44.3 ± 11.0	10 ± 6.3	Not active	–
CC(=O)N[C@H]1[C@H]([C@H](O)[C@H](O)CO)OC(C(=O)O)=C[C@@H]1O [DANA, N-acetyl-2,3-dehydro-2-deoxyneuraminic acid]	–	78.9 ± 36.1	–	100.0 ± 0.0 µM	–	inhibited	81.1 ± 27.9	–	–	–	Percentage of Virus Yield after NAI Treatment, with rNanB ([1]; NAI 50 µM): 27.4 ± 1.0%; Percentage of Virus Yield after NAI Treatment, without NA ([2]; NAI 50 µM): 34.8 ± 17.4%; IC50 [8]: 3.6 ± 0.4 µM; Percentage of Virus Yield after NAI Treatment, with rNanA ([5]; NAI 50 µM): 13.5 ± 8.3%
O=C(CCc1ccccc1)C[C@@H]1C[C@@H](c2ccccc2)c2c(cc(/C=C/c3ccccc3)oc2=O)O1 [Katsumadain A, katsumadain A]	21.0 ± 4.1	54.9 ± 25.7	29.0 ± 15.1	3.2 ± 0.0 µM	5.4 ± 4.0 µM	inhibited	67.3 ± 6.2	28.1 ± 13.7	–	–	–
CC(=O)N[C@H]1[C@H]([C@H](O)[C@H](O)CO)O[C@@](Oc2ccc3c(C)cc(=O)oc3c2)(C(=O)O)C[C@@H]1O [MUNANA, 2-(4-methylumbelliferyl)-α-D-N-acetylneuraminic acid sodium salt hydrate]	–	–	–	–	–	–	–	–	–	–	Km (rNanB [9]): 684 µM
CC(=O)N[C@H]1[C@H]([C@H](O)[C@H](O)CO)OC(C(=O)O)=C[C@@H]1N=C(N)N [Zanamivir, zanamivir]	–	–	–	Not active	Not active	–	–	–	> 100	Not active	Percentage of Virus Yield after NAI Treatment, with rNanB ([1]; NAI 0.1 µM): 6.2 ± 2.9%; Percentage of Virus Yield after NAI Treatment, with rNanB ([1]; NAI 1 µM): 0.7 ± 0.3%; Percentage of Virus Yield after NAI Treatment, without NA ([2]; NAI 0.1 µM): 4.4 ± 1.5%; Percentage of Virus Yield after NAI Treatment, without NA ([2]; NAI 1 µM): 1.4 ± 1.0%; antiviral effect in the presence of rNanA ([5]; 48 h, spread and yield): abolished; Percentage of Virus Yield after NAI Treatment, with rNanA ([5]; NAI 0.1 µM): 109.0 ± 35.5%; Percentage of Virus Yield after NAI Treatment, with rNanA ([5]; NAI 1 µM): 86.5 ± 46.2%; Inhibitory Concentration of NAIs against rNanA, FL assay (rNanA [6]; rNanA diluted 1:10,000, pH 6.5, MUNANA substrate): Not active; IC50 (rNanB [7]): > 100 µM
rNanA (Streptococcus pneumoniae R6)	–	–	–	–	–	–	–	–	–	–	Km [10]: 39.70 µM
